Assay results reported in PubChem BioAssay (NCI).
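Grown in 96-well plates, cells were treated for 48 hours with each compound at five concentrations. Insufficient inhibition: endpoint recorded as highest concentration tested. Abbreviation: GI50, concentration required for 50% inhibition of growth. TGI marks complete inhibition of growth.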

Experiments:
Assay in all cases: NCI tumour cell line growth inhibition, 48 h
MDA-MB-435 = test system: MDA-MB-435
HS 578T breast = test system: HS 578T breast
ACHN renal = test system: ACHN renal
SK-OV-3 ovarian = test system: SK-OV-3 ovarian
DU-145 prostate = test system: DU-145 prostate
NCI-H226 lung = test system: NCI-H226 lung
SF-539 CNS = test system: SF-539 CNS
LOX IMVI melanoma = test system: LOX IMVI melanoma
SF-268 CNS = test system: SF-268 CNS
UO-31 renal = test system: UO-31 renal
SNB-75 CNS = test system: SNB-75 CNS

Row | Structure (SMILES) | TGI (MDA-MB-435) [µM] | TGI (HS 578T breast) [µM] | TGI (ACHN renal) [µM] | TGI (SK-OV-3 ovarian) [µM] | TGI (DU-145 prostate) [µM] | TGI (NCI-H226 lung) [µM] | TGI (SF-539 CNS) [µM] | TGI (LOX IMVI melanoma) [µM] | TGI (SF-268 CNS) [µM] | TGI (UO-31 renal) [µM] | TGI (SNB-75 CNS) [µM] | GI50 (MDA-MB-435) [µM] | GI50 (SNB-75 CNS) [µM] | GI50 (SK-OV-3 ovarian) [µM] | GI50 (DU-145 prostate) [µM] | GI50 (SF-539 CNS) [µM] | GI50 (LOX IMVI melanoma) [µM] | GI50 (SF-268 CNS) [µM]
1 | O=C1CC(=Nc2ccc(Cl)cc2)C(c2ccccc2)N1c1ccccc1 (configuration not stated) | 6.32 | 26.6 | > 100 | 51.6 | 53 | 85.7 | 94.8 | 61.5 | > 100 | > 100 |  |  |  |  |  |  |  | 
2 | Cc1c(S(=O)(=O)/N=C(\NO)Nc2ccc(Cl)c(Cl)c2)sc2ccc(Cl)cc12 | 37.3 | 80.9 | 25.8 |  | 37.1 | 43.8 | 45.1 | 43.3 | 58.8 | 37.8 |  |  |  |  |  |  |  | 
3 | CC12C(=O)CC(CC1=O)C2(C)C |  | > 100 | > 100 | > 100 | > 100 | > 100 |  | > 100 | > 100 | > 100 | > 100 |  |  |  |  |  |  | 
4 | NC(N)=N/N=C/c1c[nH]c2ccccc12 |  |  | > 100 | > 100 |  | > 100 | > 100 | > 100 | > 100 | > 100 | > 100 |  |  |  |  |  |  | 
5 | COc1ccc(C(=C(Cl)c2ccccc2)c2ccc(OC)cc2)cc1 | > 100 | > 100 | > 100 | > 100 | > 100 | > 100 | > 100 | > 100 | > 100 | > 100 |  |  |  |  |  |  |  | 
6 | O=P(Nc1ccc(Cl)cc1)(Oc1ccccc1)N(CCCl)CCCl (configuration not stated) |  |  | > 100 | > 100 |  | > 100 | > 100 |  | > 100 | > 100 | > 100 |  |  |  |  |  |  | 
7 | CC(C)=CCC/C(C)=C/C=C/C(C)=C/C=C/C(C)=C/C=C/C=C(C)/C=C/C=C(C)/C=C/[C@H]1C(C(C)(C)O)CC[C@]1(C)O (some centres not stated) | 61.2 | 59.1 | 45.5 | > 100 | 49.9 | > 100 | > 100 | 68.3 | 42.4 | 47 |  |  |  |  |  |  |  | 
8 | NC(Cc1ccccc1)C(=O)N[C@H]1c2ccsc2/C(=N/O)[C@H]1O (some centres not stated) | > 100 |  |  | > 100 | > 100 | > 100 | > 100 | > 100 |  | > 100 |  |  |  |  |  |  |  | 
9 | COCN(CCC1=CCCCC1)C(=O)OC | > 100 | > 100 | > 100 | > 100 | > 100 |  |  |  | > 100 | > 100 | > 100 |  |  |  |  |  |  | 
10 | O=C(N/N=C/c1ccccc1)c1c(-c2cccnc2)cnc2ccccc12 |  |  | > 100 | > 100 | > 100 | > 100 | > 100 |  | > 100 | > 100 | > 100 |  |  |  |  |  |  | 
11 | O=C1C=C(C2=CC(=O)C(=O)c3ccccc32)c2ccccc2C1=O |  | 90.7 | > 100 | > 100 | 29.4 | > 100 | 82.4 | > 100 | 48.3 | > 100 | 60.1 |  |  |  |  |  |  | 
12 | CCOc1cn(C2CC(O)C(CO)O2)c(=O)[nH]c1=O (configuration not stated) | > 100 | > 100 | > 100 | > 100 | > 100 | > 100 |  | > 100 | > 100 | > 100 | > 100 |  |  |  |  |  |  | 
13 | Cn1cc(NC(=O)c2cc(NC(=O)CN=C(N)N)cn2C)cc1C(=O)NCCC(=N)N | > 100 | > 100 | > 100 | > 100 | > 100 | > 100 | > 100 | > 100 | > 100 | > 100 |  |  |  |  |  |  |  | 
14 | Cc1ccc(-c2c(C#N)c(-c3ccc(Cl)cc3)c(C#N)c(=O)n2NS(=O)(=O)c2ccc(C)cc2)cc1 | > 100 |  | > 100 | 89.2 |  | > 100 | 50.1 | 58 | > 100 |  | > 100 |  |  |  |  |  |  | 
15 | O=C(NI1OC(=O)c2ccccc21)c1ccc(Cl)cc1 | > 100 |  | > 100 | > 100 | > 100 | > 100 | > 100 | > 100 | > 100 | > 100 | > 100 |  |  |  |  |  |  | 
16 | O=C1C=CC[C@H]2O[C@@H](COC(=O)Cc3ccccc3)C[C@H]2O1 | > 100 | 59.4 | > 100 | > 100 | > 100 | > 100 | > 100 |  | 56.2 | > 100 | 77.2 |  |  |  |  |  |  | 
17 | CC1(C)NC2C(=O)c3c([nH]c4ccccc34)[C@]3(C)CCC1CC23 (some centres not stated) | > 100 | > 100 | > 100 |  | > 100 | > 100 | > 100 | > 100 | > 100 | > 100 | > 100 |  |  |  |  |  |  | 
18 | CNc1ccc(C(=O)CC(O)CCC(C)C2OC(=O)CC(O)CC(=O)CC(O)CC(O)CC(O)CC(O)CC3(O)CC(O)C(C(=O)OC)C(CC(O[C@@H]4O[C@H](C)[C@@H](O)[C@H](N)[C@@H]4O)/C=C/C=C/C=C/C=C/C=C/C=C/C=C/C2C)O3)cc1 (some centres not stated) | 6.19 |  |  | 6.92 | 3.55 |  | 47.9 | > 100 | 7.46 |  | 30.8 | 2.02 | 2.83 | 2.66 | 1.85 | 13.6 | 3.3 | 2.82
19 | Cc1ccc([N+](=O)[O-])cc1S(=O)(=O)Nc1ccc(C2=NNC(c3ccccc3)C2)cc1 (configuration not stated) | 44.6 | > 100 | 54.2 | 58.8 | 92 | > 100 | 89.2 |  | > 100 | 71.5 | > 100 |  |  |  |  |  |  | 
20 | CN1CCC(O)(C(C)(C)C)CC1 | > 100 | > 100 | > 100 | > 100 | > 100 | > 100 |  | > 100 | > 100 | > 100 | > 100 |  |  |  |  |  |  | 
21 | OCC(O)COCn1nncc1Cn1ncc2c(SCc3ccccc3)ncnc21 (configuration not stated) | > 100 | 25.7 | > 100 | > 100 | > 100 |  | > 100 | > 100 | 41.1 | > 100 |  |  |  |  |  |  |  | 
